According to patent publication US7728012B2, “Carboxamide compounds and their use as calpain inhibitors” (Abbott GmbH & Co. KG, priority 2006, dated 2010):

Tests used:
Assay type in all cases: biochemical
[1] = target: T1, cathepsin B isolated from human liver (Homo sapiens, UniProt P07858); assay: Cathepsin B kinetic fluorescence enzyme inhibition assay; conditions: selectivity ratio versus calpain I
T1 construct: cathepsin B—isolated from human liver; purchased Calbiochem 219362; host or cells: human liver (tissue isolate)
Summary of the method: (§1)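 Inhibition is measured at room temperature in cysteine-containing MES buffer, pH 6.0, by continuous fluorescence at 460 nm. Cathepsin S (0.5 nM) uses 20 μM Z-Val-Val-Arg-AMC; L (1 nM) and B (0.25 nM) use Z-Phe-Arg-AMC at 2 and 100 μM respectively.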

[2] = target: T2, recombinant human cathepsin S (Homo sapiens, UniProt P25774); assay: Cathepsin S kinetic fluorescence enzyme inhibition assay; conditions: selectivity ratio versus calpain I
T2 construct: purchased Calbiochem 219343; host or cells: E. coli
T2 sequence (P25774 115-331): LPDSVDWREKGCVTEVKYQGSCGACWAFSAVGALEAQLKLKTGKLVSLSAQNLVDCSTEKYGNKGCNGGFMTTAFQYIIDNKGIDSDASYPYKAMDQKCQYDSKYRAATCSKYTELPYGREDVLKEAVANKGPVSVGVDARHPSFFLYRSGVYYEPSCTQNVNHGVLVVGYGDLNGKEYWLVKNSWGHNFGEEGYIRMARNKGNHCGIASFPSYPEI
Summary of the method: as §1

[3] = target: T3, cathepsin K activated from recombinant human procathepsin K (Homo sapiens, UniProt P43235); assay: Cathepsin K kinetic fluorescence enzyme inhibition assay; conditions: selectivity ratio versus calpain I
T3 construct: purchased Calbiochem 342001; host or cells: E. coli
T3 sequence (P43235 115-329): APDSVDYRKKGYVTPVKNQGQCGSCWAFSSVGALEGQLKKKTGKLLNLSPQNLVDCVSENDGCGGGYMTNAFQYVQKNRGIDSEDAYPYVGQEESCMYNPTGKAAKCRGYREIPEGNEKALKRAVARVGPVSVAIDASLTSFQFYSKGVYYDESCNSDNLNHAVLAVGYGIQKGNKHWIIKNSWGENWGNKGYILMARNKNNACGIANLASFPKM

[4] = target: T4, cathepsin L isolated from human liver (Homo sapiens, UniProt P07711); assay: Cathepsin L kinetic fluorescence enzyme inhibition assay; conditions: selectivity ratio versus calpain I
T4 construct: cathepsin L—isolated from human liver; purchased Calbiochem 219402; host or cells: human liver (tissue isolate)
T4 sequence (P07711 114-333): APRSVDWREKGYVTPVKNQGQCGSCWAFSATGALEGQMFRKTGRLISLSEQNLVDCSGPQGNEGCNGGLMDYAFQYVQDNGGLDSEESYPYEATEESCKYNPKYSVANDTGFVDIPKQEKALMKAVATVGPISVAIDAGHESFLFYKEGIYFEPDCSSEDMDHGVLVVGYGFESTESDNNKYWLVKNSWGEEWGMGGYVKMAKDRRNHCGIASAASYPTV
Summary of the method: as §1

[5] = target: T5, calpain-I isolated from human erythrocytes (Homo sapiens, UniProt P07384); assay: Calpain I kinetic fluorescence enzyme inhibition assay; conditions: apparent Ki from IC50 by Cheng-Prussoff; average of 2 to 4 dose-effect plots
T5 construct: calpain-I—isolated from human erythrocytes; purchased Calbiochem 208713; host or cells: human erythrocytes (tissue isolate)
T5 sequence (P07384 1-714): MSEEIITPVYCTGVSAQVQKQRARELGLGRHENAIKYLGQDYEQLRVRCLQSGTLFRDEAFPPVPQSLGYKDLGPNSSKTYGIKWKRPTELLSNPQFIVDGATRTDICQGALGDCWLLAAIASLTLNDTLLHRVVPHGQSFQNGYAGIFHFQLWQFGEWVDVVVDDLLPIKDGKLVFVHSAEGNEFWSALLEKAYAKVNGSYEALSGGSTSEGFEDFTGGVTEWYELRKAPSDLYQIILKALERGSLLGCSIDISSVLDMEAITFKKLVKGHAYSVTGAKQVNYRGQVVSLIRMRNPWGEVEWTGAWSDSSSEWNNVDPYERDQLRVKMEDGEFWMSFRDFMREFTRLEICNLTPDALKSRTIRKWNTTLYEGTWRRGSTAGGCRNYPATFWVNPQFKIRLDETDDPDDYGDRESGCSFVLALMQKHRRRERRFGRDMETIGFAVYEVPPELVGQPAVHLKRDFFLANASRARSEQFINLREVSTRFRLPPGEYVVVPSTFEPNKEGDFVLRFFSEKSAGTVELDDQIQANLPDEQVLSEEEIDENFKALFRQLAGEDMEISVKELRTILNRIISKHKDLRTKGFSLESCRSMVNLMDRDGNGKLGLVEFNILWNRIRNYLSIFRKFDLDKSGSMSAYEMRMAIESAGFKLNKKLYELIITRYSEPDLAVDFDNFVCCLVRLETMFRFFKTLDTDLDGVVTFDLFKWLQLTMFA
T5 sequence (P04632 1-268 partner): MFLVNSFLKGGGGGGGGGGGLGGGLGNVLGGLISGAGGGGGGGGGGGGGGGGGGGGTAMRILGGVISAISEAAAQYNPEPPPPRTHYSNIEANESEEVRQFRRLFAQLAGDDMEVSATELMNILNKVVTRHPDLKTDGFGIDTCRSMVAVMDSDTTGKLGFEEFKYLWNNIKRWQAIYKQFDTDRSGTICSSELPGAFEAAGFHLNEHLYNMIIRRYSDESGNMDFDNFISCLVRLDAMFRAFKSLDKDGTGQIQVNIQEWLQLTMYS

| SMILES | Sel cat. B (Ki(cathepsin B)/Ki(calpain) ratio) [1] | Sel cat. S (Ki(cathepsin S)/Ki(calpain) ratio) [2] | Sel cat. K (Ki(cathepsin K)/Ki(calpain) ratio) [3] | Sel cat. L (Ki(cathepsin L)/Ki(calpain) ratio) [4] | Ki [5] [nM] |
| --- | --- | --- | --- | --- | --- |
| NC(=O)C(=O)C(Cc1ccc(Cl)cc1)NC(=O)c1cccnc1-n1ccc(-c2ccccc2)n1 (stereo not drawn) [Example 50, N-[3-Amino-1-(4-chlorobenzyl)-2,3-dioxopropyl]-2-(3-phenyl-1H-pyrazol-1-yl)nicotinamide] | + (10≦Ki(cathepsin B)/Ki(calpain)<30) | + (50≦Ki(cathepsin S)/Ki(calpain)<100) | + (10≦Ki(cathepsin K)/Ki(calpain)<30) | + (30≦Ki(cathepsin L)/Ki(calpain)<50) | 40 to 100 |
| NC(=O)C(=O)C(Cc1ccccc1)NC(=O)c1cccnc1-n1ccc(-c2ccccc2Cl)n1 (stereo not drawn) [Example 54, N-(3-Amino-1-benzyl-2,3-dioxopropyl)-2-[3-(2-chlorophenyl)-1H-pyrazol-1-yl]nicotinamide] | ++ (Ki(cathepsin B)/Ki(calpain) ratio of ≧30) | ++ (Ki(cathepsin S)/Ki(calpain) ratio of ≧100) | ++ (Ki(cathepsin K)/Ki(calpain) ratio of ≧30) | ++ (Ki(cathepsin L)/Ki(calpain) ratio of ≧50) | 40 to 100 |
| NC(=O)C(=O)C(Cc1ccccc1)NC(=O)c1cccnc1-n1ccc(-c2cccs2)n1 (stereo not drawn) [Example 55, N-(3-Amino-1-benzyl-2,3-dioxopropyl)-2-[3-(2-thienyl)-1H-pyrazol-1-yl]nicotinamide] | + (10≦Ki(cathepsin B)/Ki(calpain)<30) | ++ (Ki(cathepsin S)/Ki(calpain) ratio of ≧100) | + (10≦Ki(cathepsin K)/Ki(calpain)<30) | ++ (Ki(cathepsin L)/Ki(calpain) ratio of ≧50) | ≤ 40 |
| NC(=O)C(=O)C(Cc1ccccc1)NC(=O)c1cccnc1-n1ccc(-c2cccc(N3CCOCC3)c2)n1 (stereo not drawn) [Example 58, N-(3-Amino-1-benzyl-2,3-dioxopropyl)-2-[3-(3-morpholin-4-ylphenyl)-1H-pyrazol-1-yl]nicotinamide] | + (10≦Ki(cathepsin B)/Ki(calpain)<30) | ++ (Ki(cathepsin S)/Ki(calpain) ratio of ≧100) | + (10≦Ki(cathepsin K)/Ki(calpain)<30) | ++ (Ki(cathepsin L)/Ki(calpain) ratio of ≧50) | ≤ 40 |
| NC(=O)C(=O)C(Cc1ccccc1)NC(=O)c1cccnc1-n1ccc(-c2ccc(C(F)(F)F)cc2)n1 (stereo not drawn) [Example 60, N-(3-Amino-1-benzyl-2,3-dioxopropyl)-2-{3-[4-(trifluoromethyl)phenyl]-1H-pyrazol-1-yl}nicotinamide] | + (10≦Ki(cathepsin B)/Ki(calpain)<30) | + (50≦Ki(cathepsin S)/Ki(calpain)<100) | + (10≦Ki(cathepsin K)/Ki(calpain)<30) | ++ (Ki(cathepsin L)/Ki(calpain) ratio of ≧50) | 40 to 100 |
| NC(=O)C(=O)C(Cc1ccccc1)NC(=O)c1cccnc1-n1cc2c(n1)-c1ccccc1CC2 (stereo not drawn) [Example 63, N-(3-Amino-1-benzyl-2,3-dioxopropyl)-2-(4,5-dihydro-2H-benzo[g]indazol-2-yl)nicotinamide] | + (10≦Ki(cathepsin B)/Ki(calpain)<30) | ++ (Ki(cathepsin S)/Ki(calpain) ratio of ≧100) | + (10≦Ki(cathepsin K)/Ki(calpain)<30) | ++ (Ki(cathepsin L)/Ki(calpain) ratio of ≧50) | ≤ 40 |
| NC(=O)C(=O)C(Cc1ccc(Cl)cc1)NC(=O)c1cccnc1-n1ccc(-c2ccc(F)cc2)n1 (stereo not drawn) [Example 67, N-[3-Amino-1-(4-chlorobenzyl)-2,3-dioxopropyl]-2-[3-(4-fluorophenyl)-1H-pyrazol-1-yl]nicotinamide] | + (10≦Ki(cathepsin B)/Ki(calpain)<30) | ++ (Ki(cathepsin S)/Ki(calpain) ratio of ≧100) | + (10≦Ki(cathepsin K)/Ki(calpain)<30) | ++ (Ki(cathepsin L)/Ki(calpain) ratio of ≧50) | 40 to 100 |
| NC(=O)C(=O)C(Cc1ccccc1)NC(=O)c1cccnc1-n1ccc(-c2ccc(N3CCCC3)cc2)n1 (stereo not drawn) [Example 69, N-(3-Amino-1-benzyl-2,3-dioxopropyl)-2-[3-(4-pyrrolidin-1-ylphenyl)-1H-pyrazol-1-yl]nicotinamide] | + (10≦Ki(cathepsin B)/Ki(calpain)<30) | ++ (Ki(cathepsin S)/Ki(calpain) ratio of ≧100) | + (10≦Ki(cathepsin K)/Ki(calpain)<30) | ++ (Ki(cathepsin L)/Ki(calpain) ratio of ≧50) | 40 to 100 |
| NC(=O)C(=O)C(Cc1ccccc1)NC(=O)c1cccnc1-n1ccc(-c2cccc(Cl)c2)n1 (stereo not drawn) [Example 70, N-(3-Amino-1-benzyl-2,3-dioxopropyl)-2-[3-(3-chlorophenyl)-1H-pyrazol-1-yl]nicotinamide] | + (10≦Ki(cathepsin B)/Ki(calpain)<30) | ++ (Ki(cathepsin S)/Ki(calpain) ratio of ≧100) | + (10≦Ki(cathepsin K)/Ki(calpain)<30) | ++ (Ki(cathepsin L)/Ki(calpain) ratio of ≧50) | ≤ 40 |
| NC(=O)C(=O)C(Cc1ccccc1)NC(=O)c1cccnc1-n1ccc(-c2ccc(F)cc2Cl)n1 (stereo not drawn) [Example 71, N-(3-Amino-1-benzyl-2,3-dioxopropyl)-2-[3-(2-chloro-4-fluorophenyl)-1H-pyrazol-1-yl]nicotinamide] | ++ (Ki(cathepsin B)/Ki(calpain) ratio of ≧30) | ++ (Ki(cathepsin S)/Ki(calpain) ratio of ≧100) | ++ (Ki(cathepsin K)/Ki(calpain) ratio of ≧30) | ++ (Ki(cathepsin L)/Ki(calpain) ratio of ≧50) | 40 to 100 |
| NC(=O)C(=O)C(Cc1ccccc1)NC(=O)c1cccnc1-n1ccc(-c2ccccc2C(F)(F)F)n1 (stereo not drawn) [Example 72, N-(3-Amino-1-benzyl-2,3-dioxopropyl)-2-{3-[2-(trifluoromethyl)phenyl]-1H-pyrazol-1-yl}nicotinamide] | + (10≦Ki(cathepsin B)/Ki(calpain)<30) | ++ (Ki(cathepsin S)/Ki(calpain) ratio of ≧100) | + (10≦Ki(cathepsin K)/Ki(calpain)<30) | + (30≦Ki(cathepsin L)/Ki(calpain)<50) | 40 to 100 |
| NC(=O)C(=O)C(Cc1ccccc1)NC(=O)c1cccnc1-n1ccc(-c2ccccc2F)n1 (stereo not drawn) [Example 76, N-(3-Amino-1-benzyl-2,3-dioxopropyl)-2-[3-(2-fluorophenyl)-1H-pyrazol-1-yl]nicotinamide] | ++ (Ki(cathepsin B)/Ki(calpain) ratio of ≧30) | ++ (Ki(cathepsin S)/Ki(calpain) ratio of ≧100) | + (10≦Ki(cathepsin K)/Ki(calpain)<30) | ++ (Ki(cathepsin L)/Ki(calpain) ratio of ≧50) | ≤ 40 |
